System: patients of the practice
Assay: second study: questionnaire on cardiac events in patients of the practice treated with finasteride vs control group
Assay type: in vivo, human
Conditions: 4 events over 242 patient-years; control 3.5%/yr.
Method: Finasteride was being administered at a dosage of a single oral 5 mg tablet a day. This is the same tablet used in treatment of BPH as disclosed in U.S. Pat. No. 5,175,155 and such dosage applies in the present invention. However, use of a 2 mg or 10 mg oral tablet is contemplated.
Two studies were undertaken to determine whether finasteride was, in fact, effective in lessening the incidence of heart disease and other complications of atherosclerosis.
In the second study patients of the practice were given a questionnaire. Various patients had been treated with finasteride for varying lengths of time. Only those on the drug for at least one year were considered. The average time on finasteride was 3 years. The number of cardiac events occurring in the patients taking finasteride was only 4 events over 242 patient-years. (1.6%/yr.) In the control group 26 events occurred in the 3 years prior over 732 patient-years. (3.5%/yr.)
The […] observed in cardiac events is believed to be significant. (90% Cl equal to 1.4% to 3.7%)

Compound: CC(C)(C)NC(=O)[C@H]1CC[C@H]2[C@@H]3CC[C@H]4NC(=O)C=C[C@]4(C)[C@H]3CC[C@]12C [finasteride, 4-azaandrost-1-ene-17-carboxamide, N-(1,1-dimethylethyl)-3-oxo-(5a 17B)-]
- cardiac events per patient-year: 1.6 %/yr.
